Results: patent publication USRE46856E1, “Substituted 2,3-dihydroimidazo[1,2-c]quinazoline derivatives useful for treating hyper-proliferative disorders and diseases associated with angiogenesis” (Bayer Intellectual Property GmbH, priority 2006, dated 2018)
pIC50: −log10 of the molar value. Structures can show the parent of a compound that is named as a salt.

Test system: IGF-1 induced AKT phosphorylation in A549 cells
Assay: IGF-1 induced AKT phosphorylation assay (A549 cell assay)
Assay type: cell-based
Conditions: Homo sapiens; A549 cells, 25 ng/ml IGF-1, phospho-AKT(Ser 473); read-out: average IC50 in the A549 cell assay
From the text: [Determination of IC50 Values of Compounds in Cell Based Assays of PI3K Activity] 96-well collagen treated clear bottom/black sided Costar plates were purchased from CORNING LIFE SCIENCES (Corning, N.Y.; at.#3904). Gibco RPMI medium (Cat.#11875), Biosource anti-phospho-AKT([…]) antibody (Cat.#44-621G) and recombinant IGF-1 (Cat.#PHG0074) were purchased from INVITROGEN (Carlsbad, Calif.). The secondary donkey anti-rabbit IgG horse radish peroxidase conjugate (Cat. #N[…]) and ECL chemiluminesence reagent (Cat.#RPN2209) were purchased from […] (Buckinghamshire, UK). Cell culture tested bovine serum albumin solution (35% in DPBS; Cat.#A7979) and all other chemicals were purchased from SIGMA (St. Louis, Mo.). The Wallac Victor2 1420 Multilabel HTS Counter was purchased from […] (Wellesley, Mass.) […] All wells (except no IGF-1 controls) were then treated with 25 ng/ml IGF-1 for 10 minutes at 37° C. in a 5% CO2 incubator. Following removal of the supernatants and washing with the wells with TBS (50 mM Tris pH 8.0 containing 138 mM NaCL and 27 mM KCl), 200 µL of 3.7% formaldehyde in TBS was added to each well, and the plate was incubated at 4° C. for 10 minutes. Supernatants were once again removed and replaced with 50 μL Methanol (-20° C.) and the plate incubated at 4° C. for 5 minutes. 200 μL of 0.1% BSA in TBS was then added to each well and the plate incubated at room temperature for 1⁄2 hour. Supernatants were removed and 50 μL of a solution comprising the primary anti-phospho-AKT([…]) antibody diluted 1:250 in TBS containing 0.1% BSA was added to each well (except control/background wells). The plate was then incubated for 11⁄2 hour at room temperature. Supernatants were removed, each well was washed 3 times with 200 μL TBS, and 100 μL of a solution containing the secondary donkey anti-rabbit IgG antibody HRP-conjugate diluted 1:100 in TBS-T (TBS containing 0.1% triton). Plates were then incubated for 1 hour at room temperature. After removing the secondary antibody, each well was washed 6 times with cold TBS-T, 100 μL of ECL was added to each well, and the plate was placed on an orbital shaker for 1 minute. The plates were then read on a Wallac Victor2 1420 Multilabel HTS Counter using the luminometry window (maximum light detection is measured at […]). IC50 values were determined from the inhibition curve.

Row | SMILES | pIC50
1 | COc1c(OCCCN2CCOCC2)ccc2c1N=C(NC(=O)c1ccc(N3CC[C@H](N)C3)nc1)N1CCN=C21 [Example 51, 6-[(3S)-3-aminopyrrolidin-1-yl]-N-[7-methoxy-8-(3-morpholin-4-ylpropoxy)-2,3-dihydroimidazo[1,2-c]quinazolin-5-yl]nicotinamide hydrochloride hydrate] | 6.00 to 7.00
2 | COc1c(OCCCN2CCOCC2)ccc2c1N=C(NC(=O)c1ccc(N3CC[C@@H](N)C3)nc1)N1CCN=C21 [Example 52, 6-[(3R)-3-aminopyrrolidin-1-yl]-N-[7-methoxy-8-(3-morpholin-4-ylpropoxy)-2,3-dihydroimidazo[1,2-c]quinazolin-5-yl]nicotinamide hydrochloride] | > 7.00
3 | COc1c(OCCCN2CCOCC2)ccc2c1N=C(NC(=O)c1ccc(NCc3ccco3)nc1)N1CCN=C21 [Example 54, 6-[(2-furylmethyl)amino]-N-[7-methoxy-8-(3-morpholin-4-ylpropoxy)-2,3-dihydroimidazo[1,2-c]quinazolin-5-yl]nicotinamide] | 6.00 to 7.00
4 | COCCNc1ccc(C(=O)NC2=Nc3c(ccc(OCCCN4CCOCC4)c3OC)C3=NCCN23)cn1 [Example 55, 6-[(2-methoxyethyl)amino]-N-[7-methoxy-8-(3-morpholin-4-ylpropoxy)-2,3-dihydroimidazo[1,2-c]quinazolin-5-yl]nicotinamide] | 6.00 to 7.00
5 | COc1c(OCCCN2CCOCC2)ccc2c1N=C(NC(=O)c1ccc(NC(=O)C3CC3)nc1)N1CCN=C21 [Example 60, 6-[(cyclopropylcarbonyl)amino]-N-[7-methoxy-8-(3-morpholin-4-ylpropoxy)-2,3-dihydroimidazo[1,2-c]quinazolin-5-yl]nicotinamide] | > 7.00
6 | COc1c(OCCCN2CCOCC2)ccc2c1N=C(NC(=O)c1ccc(NC(=O)C(C)C)nc1)N1CCN=C21 [Example 63, 6-(isobutyrylamino)-N-[7-methoxy-8-(3-morpholin-4-ylpropoxy)-2,3-dihydroimidazo[1,2-c]quinazolin-5-yl]nicotinamide] | > 7.00
7 | CNC(=O)Nc1nc(C(=O)NC2=Nc3c(ccc(OCCCN4CCOCC4)c3OC)C3=NCCN23)cs1 [Example 65, N-[7-methoxy-8-(3-morpholin-4-ylpropoxy)-2,3-dihydroimidazo[1,2-c]quinazolin-5-yl]-2-{[(methylamino)carbonyl]amino}-1,3-thiazole-4-carboxamide] | < 6.00
8 | CNC(=O)Nc1ccc(C(=O)NC2=Nc3c(ccc(OCCCN4CCOCC4)c3OC)C3=NCCN23)cn1 [Example 66, N-[7-methoxy-8-(3-morpholin-4-ylpropoxy)-2,3-dihydroimidazo[1,2-c]quinazolin-5-yl]-6-{[(methylamino)carbonyl]amino}nicotinamide] | > 7.00
9 | CNc1nc(C(=O)NC2=Nc3c(ccc(OCCCN4CCOCC4)c3OC)C3=NCCN23)cs1 [Example 67, N-[7-methoxy-8-(3-morpholin-4-ylpropoxy)-2,3-dihydroimidazo[1,2-c]quinazolin-5-yl]-2-(methylamino)-1,3-thiazole-4-carboxamide] | 6.00 to 7.00
10 | COc1c(OCCN(C)C)ccc2c1N=C(NC(=O)c1sc(C)nc1C)N1CCN=C21 [Example 69, N-{8-[2-(dimethylamino)ethoxy]-7-methoxy-2,3-dihydroimidazo[1,2-c]quinazolin-5-yl}-2,4-dimethyl-1,3-thiazole-5-carboxamide] | > 7.00
11 | COc1c(OCCN(C)C)ccc2c1N=C(NC(=O)c1ccc(C)nc1)N1CCN=C21 [Example 70, N-{8-[2-(dimethylamino)ethoxy]-7-methoxy-2,3-dihydroimidazo[1,2-c]quinazolin-5-yl}-6-methylnicotinamide] | > 7.00
12 | COc1c(OCCCN2CCOCC2)ccc2c1N=C(NC(=O)c1ccc(NC(=O)NC(C)C)nc1)N1CCN=C21 [Example 71, 6-{[(isopropylamino)carbonyl]amino}-N-[7-methoxy-8-(3-morpholin-4-ylpropoxy)-2,3-dihydroimidazo[1,2-c]quinazolin-5-yl]nicotinamide] | > 7.00
13 | COc1c(OCCCN2CCOCC2)ccc2c1N=C(NC(=O)c1ccc(N3CCCC3)nc1)N1CCN=C21 [Example 72, N-[7-methoxy-8-(3-morpholin-4-ylpropoxy)-2,3-dihydroimidazo[1,2-c]quinazolin-5-yl]-6-pyrrolidin-1-ylnicotinamide] | 6.00 to 7.00
14 | COc1c(OCCCN2CCOCC2)ccc2c1N=C(NC(=O)c1ccc(N(C)C)nc1)N1CCN=C21 [Example 73, 6-(dimethylamino)-N-[7-methoxy-8-(3-morpholin-4-ylpropoxy)-2,3-dihydroimidazo[1,2-c]quinazolin-5-yl]nicotinamide] | 6.00 to 7.00
15 | CCNC(=O)Nc1ccc(C(=O)NC2=Nc3c(ccc(OCCCN4CCOCC4)c3OC)C3=NCCN23)cn1 [Example 77, 6-{[(ethylamino)carbonyl]amino}-N-[7-methoxy-8-(3-morpholin-4-ylpropoxy)-2,3-dihydroimidazo[1,2-c]quinazolin-5-yl]nicotinamide] | > 7.00
16 | COc1c(OCCCN2CCOCC2)ccc2c1N=C(NC(=O)c1ccc(F)nc1)N1CCN=C21 [Example 78, 6-fluoro-N-[7-methoxy-8-(3-morpholin-4-ylpropoxy)-2,3-dihydroimidazo[1,2-c]quinazolin-5-yl]nicotinamide] | 6.00 to 7.00
17 | COc1c(OCCCN2CCOCC2)ccc2c1N=C(NC(=O)c1coc(N)n1)N1CCN=C21 [Example 79, 2-amino-N-[7-methoxy-8-(3-morpholin-4-ylpropoxy)-2,3-dihydroimidazo[1,2-c]quinazolin-5-yl]-1,3-oxazole-4-carboxamide] | < 6.00
18 | CCNc1nc(C(=O)NC2=Nc3c(ccc(OCCCN4CCOCC4)c3OC)C3=NCCN23)cs1 [Example 80, 2-(ethylamino)-N-[7-methoxy-8-(3-morpholin-4-ylpropoxy)-2,3-dihydroimidazo[1,2-c]quinazolin-5-yl]-1,3-thiazole-4-carboxamide] | 6.00 to 7.00
19 | COc1c(OCCCN2CCOCC2)ccc2c1N=C(NC(=O)c1cnccn1)N1CCN=C21 [Example 81, N-[7-methoxy-8-(3-morpholin-4-ylpropoxy)-2,3-dihydroimidazo[1,2-c]quinazolin-5-yl]pyrazine-2-carboxamide] | < 6.00

Continued, values first:

Row | pIC50 | SMILES
20 | 6.00 to 7.00 | CNCCCOc1ccc2c(c1OC)N=C(NC(=O)c1cccnc1)N1CCN=C21 [Example 58, N-{7-methoxy-8-[3-(methylamino)propoxy]-2,3-dihydroimidazo[1,2-c]quinazolin-5-yl}nicotinamide]
21 | 6.00 to 7.00 | COc1c(OCCCN2CCN(C)CC2)ccc2c1N=C(NC(=O)c1cccnc1)N1CCN=C21 [Example 64, N-{7-methoxy-8-[3-(4-methylpiperazin-1-yl)propoxy]-2,3-dihydroimidazo[1,2-c]quinazolin-5-yl}nicotinamide]
22 | > 7.00 | COc1c(OCCN2CCOCC2)ccc2c1N=C(NC(=O)c1cccnc1)N1CCN=C21 [Example 68, N-[7-methoxy-8-(2-morpholin-4-ylethoxy)-2,3-dihydroimidazo[1,2-c]quinazolin-5-yl]nicotinamide]
23 | > 7.00 | COc1c(OCCCN2CCCCC2)ccc2c1N=C(NC(=O)c1cccnc1)N1CCN=C21 [Example 74, N-[7-methoxy-8-(3-piperidin-1-ylpropoxy)-2,3-dihydroimidazo[1,2-c]quinazolin-5-yl]nicotinamide]
24 | > 7.00 | COc1c(OCCN2CCCC2)ccc2c1N=C(NC(=O)c1cccnc1)N1CCN=C21 [Example 75, N-[7-methoxy-8-(2-pyrrolidin-1-ylethoxy)-2,3-dihydroimidazo[1,2-c]quinazolin-5-yl]nicotinamide]
25 | > 7.00 | COc1c(OCCN2CCCCC2)ccc2c1N=C(NC(=O)c1cccnc1)N1CCN=C21 [Example 76, N-[7-methoxy-8-(2-piperidin-1-ylethoxy)-2,3-dihydroimidazo[1,2-c]quinazolin-5-yl]nicotinamide]
26 | 6.00 to 7.00 | COc1c(OCCN)ccc2c1N=C(NC(=O)c1cccnc1)N1CCN=C21 [Example 82, N-[8-(2-aminoethoxy)-7-methoxy-2,3-dihydroimidazo[1,2-c]quinazolin-5-yl]nicotinamide]
27 | > 7.00 | COc1c(OCCCN2CCOCC2)ccc2c1N=C(NC(=O)c1ccc(N)nc1)N1CCN=C21 [Example 83, 6-amino-N-[7-methoxy-8-(3-morpholin-4-ylpropoxy)-2,3-dihydroimidazo[1,2-c]quinazolin-5-yl]nicotinamide]
28 | 6.00 to 7.00 | COc1c(OCCCN2CCOCC2)ccc2c1N=C(NC(=O)c1ccncc1)N1CCN=C21 [Example 84, N-[7-methoxy-8-(3-morpholin-4-ylpropoxy)-2,3-dihydroimidazo[1,2-c]quinazolin-5-yl]isonicotinamide]
